From publication PMC12582325 (Proceedings of the National Academy of Sciences of the …, 2025)
Values joined by “and” are separate entries in the source; they are usually repeats but may differ in a detail not shown here. Equal entries are not always repeated. Where two headings read alike, the source gives them in different places. Where a SMILES comes first, the peptide text is derived from it.

Experiments:
[1] = system: Bb.Ste2; assay type: cell-based, Beauveria bassiana
[2] = system: F. oxysporum in tomato roots; assay: Quantification of fungal DNA in tomato roots (qPCR); details: 3 d after inoculation, washed roots; compared to the untreated infected roots; three biological replicates
[3] = system: Fg.Ste2; assay type: cell-based, Fusarium graminearum; details: for Diploid frequency (%): 20 h coculture; for diploid frequency (%) / average (diploid colonies): GPCR strain GEN37 HIS; for average (diploid colonies): dilution 500, mean of Rep1-3
[4] = system: Bb.Ste2; assay type: cell-based, Beauveria bassiana; details: YPL1 library cocultured with Bb.Ste2 strain GEN88, 20 h, 2 d diploid enrichment, NextSeq 500
[5] = system: Bc.Ste2; assay type: cell-based, Botrytis cinerea
[6] = system: F. oxysporum infection of tomato plants; assay: Tomato plant mortality assay; assay type: in vivo, Fusarium oxysporum / Solanum lycopersicum; details: groups of 10 plants; 3.2 × 10^6 microconidia/mL supplemented with pheromone once at inoculation; 50 d; Kaplan-Meier, log-rank
Experimental: Tomato plant infection assays were performed as described ([61]) with F. oxysporum microconidia and treatment inoculation as described above. Plants were transferred to a growth and plant survival was recorded daily for 50 d. Plant death was diagnosed as a complete collapse of the stem, without any green parts left. The Kaplan–Meier test was used to assess statistical significance of differences in survival among groups using the log-rank test in GraphPad Prism. The infection experiment was conducted two times with 10 plants per condition.

[7] = system: Bb.Ste2; assay type: cell-based, Beauveria bassiana; details: for Diploid frequency (%): 20 h coculture; for diploid frequency (%) / average (diploid colonies): GPCR strain GEN47 HIS; for average (diploid colonies): dilution 500, mean of Rep1-3
[8] = system: no_GPCR (negative control lacking a GPCR); assay type: cell-based, Saccharomyces cerevisiae; details: for barcode qPCR of diploids, no_GPCR x pheromone strain: consortium, individual replicates (n=3), listed as Fo.Pheromone
[9] = system: empty (strain lacking a GPCR); assay type: cell-based, Saccharomyces cerevisiae; details: Fig. 1D mating matrix; pheromone secreted by MATa strain, MATα strain lacking a GPCR (empty); deep well plate, 20 h coculture
[10] = system: Mo Ste2 GPCR; assay type: cell-based, Magnaporthe oryzae; details: Fig. 1D mating matrix; pheromone secreted by MATa strain, GPCR in MATα strain; deep well plate, 20 h coculture; three technical plating replicates
[11] = system: F. oxysporum on tomato roots; assay: Tomato root inoculation and fluorescence microscopy of infected roots; assay type: in vivo, Fusarium oxysporum / Solanum lycopersicum; details: exogenous addition of pheromone to microconidia; 3 d after inoculation; fluorescence microscopy
[12] = system: F. oxysporum microconidia; assay: Germination of F. oxysporum microconidia; assay type: cell-based, Fusarium oxysporum f. sp. lycopersici 4287; parameters: Germination of F. oxysporum microconidia (data of Sup.Fig.10): unit not given here; details: for Germination of F. oxysporum microconidia (data of Sup.Fig.10): 400 μM pheromone, 13 h, at least 300 spores counted
Experimental: For F. oxysporum microconidia production, the strain was grown for 3 to 4 d in liquid potato dextrose broth (PDB) at 28 °C and 170 rpm. Germination media ([10]) was used for assessing the spore germination. RE was prepared by removing 2-wk-old tomato plants from vermiculite and washing the roots to remove any adhering substrates ([11]).
Supplementary Figure 10. Germination of F. oxysporum microconidia after 13 h of incubation in Germination Media at a cell density of […] microconidia/mL. The assay was performed with 400 μM of pheromone. All points represent the average of three biological replicates in which at least 300 spores were counted. Statistical significance was determined through one-way analysis of variance (ANOVA) with Dunnett’s multiple comparisons (✱p ≤ 0.05).

[13] = system: Fo.Ste2; assay type: cell-based, Fusarium oxysporum
[14] = system: Hj.Hpr2; assay type: cell-based, Hypocrea jecorina
[15] = system: B. bassiana; assay type: cell-based, Beauveria bassiana
[16] = system: Bc.Ste2; assay type: cell-based, Botrytis cinerea; remark: listed apart in the source
[17] = Fig. 1D mating matrix, pheromone secreted by MATa strain, GPCR in MATα strain, deep well plate, three technical plating replicates
[18] = Fig. 1F validation in culture tubes, secreted pheromone, three biological and three technical replicates

C[C@@H](O)[C@H](NC(=O)[C@H](CS)NC(=O)[C@@H](N)Cc1c[nH]c2ccccc12)C(=O)N[C@@H](Cc1c[nH]c2ccccc12)C(=O)N[C@@H](CCCNC(=N)N)C(=O)NCC(=O)N[C@@H](CCC(N)=O)C(=O)N1CCC[C@H]1C(=O)N[C@@H](CS)C(=O)N[C@@H](Cc1c[nH]c2ccccc12)C(=O)O [Fo] (H-WCTWRGQPCW-OH; N-terminus assumed)
Activation of Bb.Ste2 biosensor, in words [1]: higher EC50 values | EC50 fold higher than that of the Bb pheromone [1]: 3,910 fold | Fold change yEGFP [1]: 178 | Hillslope [1]: 1.951 | half-maximal effective concentration (EC50) [1]: 958 nM | logEC50 [1]: -6.019 | Fungal biomass in inoculated tomato roots (qPCR of Fol4287 actin gene, 2^−ΔΔCt, normalized to tomato gapdh) [2]: significant reduction in fungal biomass | Diploid frequency (%) [3, 17]: 0.5% | Diploid frequency (%) [3, 18]: 8.8% | diploid frequency (%) ([3]; co-culture replicate 1): 1.34% | average (diploid colonies) ([3]; co-culture replicate 1): 5.67 | diploid frequency (%) ([3]; co-culture replicate 2): 1.11% | average (diploid colonies) ([3]; co-culture replicate 2): 4.67 | diploid frequency (%) ([3]; co-culture replicate 3): 0.95% | average (diploid colonies) ([3]; co-culture replicate 3): 4 | Enrichment after mating, reads per million minus library before coculture [4]: > 340,000 RPM | Fold change yEGFP [5]: 1 | Hillslope [5]: 0.5934 | logEC50 [5]: -8.991 | Sup.Fig.3A Bc.Ste2 biosensor response, group mean ([5]; 10 μM): 1.713 | Tomato plant survival [6]: no significant difference in plant survival | Diploid frequency (%) [7, 17]: 0.7% | Diploid frequency (%) [7, 18]: 4.9% | diploid frequency (%) ([7]; co-culture replicate 1): 4.61% | average (diploid colonies) ([7]; co-culture replicate 1): 22 | diploid frequency (%) ([7]; co-culture replicate 2): 3.74% | average (diploid colonies) ([7]; co-culture replicate 2): 17.67 | diploid frequency (%) ([7]; co-culture replicate 3): 6.44% | average (diploid colonies) ([7]; co-culture replicate 3): 31.33 | barcode qPCR of diploids, no_GPCR x pheromone strain ([8]; SC-AS/Urea): 0 and 0.004 and 0.005 | barcode qPCR of diploids, no_GPCR x pheromone strain ([8]; SC): 0 (2×) and 0.007 | diploid barcode qPCR signal relative to control (2^-dCt) ([8]; section A4, GPCR strain not given, mean of Bio1-3): 0.036 | diploid barcode qPCR signal relative to control (2^-dCt) ([8]; section A4, column EMPTY, replicate Bio1): 0.014 | diploid barcode qPCR signal relative to control (2^-dCt) ([8]; section A4, column EMPTY, replicate Bio2): 0.039 | diploid barcode qPCR signal relative to control (2^-dCt) ([8]; section A4, column EMPTY, replicate Bio3): 0.054 | diploid barcode qPCR signal relative to control (2^-dCt) ([8]; section Cm, GPCR strain not given, mean of Bio1-3): 0.002 | diploid barcode qPCR signal relative to control (2^-dCt) ([8]; section Cm, column EMPTY, replicate Bio1): 0.005 | diploid barcode qPCR signal relative to control (2^-dCt) ([8]; section Cm, column EMPTY, replicate Bio2): 0 | diploid barcode qPCR signal relative to control (2^-dCt) ([8]; section Cm, column EMPTY, replicate Bio3): 0 | diploid barcode qPCR signal relative to control (2^-dCt) ([8]; section SC, GPCR strain not given, mean of Bio1-3): 0.0024 | diploid barcode qPCR signal relative to control (2^-dCt) ([8]; section SC, column EMPTY, replicate Bio1): 0 | diploid barcode qPCR signal relative to control (2^-dCt) ([8]; section SC, column EMPTY, replicate Bio2): 0 | diploid barcode qPCR signal relative to control (2^-dCt) ([8]; section SC, column EMPTY, replicate Bio3): 0.007 | diploid barcode qPCR signal relative to control (2^-dCt) ([8]; section Scramble, GPCR strain not given, mean of Bio1-3): 0.0071 | diploid barcode qPCR signal relative to control (2^-dCt) ([8]; section Scramble, column EMPTY, replicate Bio1): 0 | diploid barcode qPCR signal relative to control (2^-dCt) ([8]; section Scramble, column EMPTY, replicate Bio2): 0.015 | diploid barcode qPCR signal relative to control (2^-dCt) ([8]; section Scramble, column EMPTY, replicate Bio3): 0.006 | Diploid frequency (%) [9]: 0.1% | Diploid frequency (%) [10]: 0.0% | Adhesion of F. oxysporum germ tubes among themselves or to tomato roots [11]: increased adhesion | Germination of F. oxysporum microconidia (data of Sup.Fig.10) ([12]; biological replicate 1 (first line)): 23,4 | Germination of F. oxysporum microconidia (data of Sup.Fig.10) ([12]; biological replicate 2 (second line)): 23,3 | Germination of F. oxysporum microconidia (data of Sup.Fig.10) ([12]; biological replicate 3 (third line)): 13,3 | Mean Diff, Solvent vs. peptide ([12]; Sup.Fig.10, Dunnett's multiple comparisons test, n = 3): 23,77 | Mean 2 (peptide), germination ([12]; Sup.Fig.10, Solvent control mean 43,77, mean of n = 3): 20,00 | Effect on F. oxysporum microconidia germination, in words ([12]; exogenous addition of 400 μM peptide, 13 h in Germination Media, 3.2 x 106 microconidia/mL): significant reduction | Sup.Fig.7A - Fo, group mean [13]: 0.3879 and 0.4515 | average (diploid colonies) [13]: 68 and 129.67 and 80.33 | diploid frequency (%) [13]: 19.26% and 31.27% and 21.99% | diploid frequency (%), Plates, Fo [13]: 1.52% and 3.25% and 5.49% | diploid frequency (%), Plates, Fo ([13]; pH=6): 1.9% and 1.65% and 1.4% | diploid frequency (%), Plates, Fo ([13]; pH=7): 1.27% and 1.02% and 0.39% | Sup.Fig.7A - Fo, group mean ([13]; ph=6): 0.422 | Sup.Fig.7A - Fo, group mean ([13]; ph=7): 0.4837 | barcode qPCR of diploids, Hj.HPR2 x pheromone strain [14]: 0 | diploid barcode qPCR signal relative to control (2^-dCt) [14]: 0 | Chemotropism of spores, group mean [15]: 11.13 | chem. Index [15]: 14.29 and 11.03 and 8.06 | Chemotropic response in Bb germ tubes ([15]; 20 hours): significant chemotropic response | Diploid frequency (%) [16]: 0.1% and 0.3% | average (diploid colonies) [16]: 0.67 and 1 | diploid frequency (%) [16]: 0.19% and 0.28%
